In patent US20120296403A1, “METHODS AND COMPOUNDS FOR MUSCLE GROWTH” (NOVARTIS AG, priority 2010, published 2012):
Where a SMILES comes first, the peptide text is derived from it. The star is where a group is joined. Cbz = O=C(OCc1ccccc1)*

Assays:
IRS1 [1] = test: IRS1 degradation / protein stability in C2C12 myotubes (Western blotting); assay type: cell-based, mouse; conditions: for IRS1 degradation upon treatment: increasing concentration, along with protein synthesis inhibitor Emetin, dose-dependent
Method: Differentiated C2C12 myotubes are treated with increasing concentration of IGF1 or dexmethasome (DEX), a glucocorticoid that can lead to muscle atrophy, along with protein synthesis inhibitor Emetin (Eme). […] In C2C12 myotubes, IRS1 is rapidly degraded upon IGF1 treatment with a half-life of around 2 hours (FIGS. 4B and 4E).
Cells are washed twice with warm serum free DMEM and starved in serum free DMEM for 4 hours with an exchange of fresh medium in the middle. Then the signaling inhibitors are added to pretreat cells for 30 min before incubation with freshly prepared inhibitors with 10 nM IGF1 (the R3 form, Sigma, St. Louis, Mo.) or 10 μM Emetin (Sigma, St. Louis, Mo.) or 20 μM MG132 (Alexis Biochemicals, Carlsbad, Calif.) as specified for an additional 5 hours. Cells are rinsed two times with ice-cold PBS and harvested in ice-cold RIPA buffer with 10 μM MG132 and protease/phosphatase inhibitors tablets (Roche, Basel, Switzerland). Cell lysates are rotated at 4° C. for at least one hour, and spun for 10 min at 16,000×g in a micro centrifuge at 4° C. Protein concentrations of the supernatants are determined by BCA Protein Assay Kit (Pierce/Thermo Fisher Scientific, Rockford, Ill.). Equal amounts of proteins (10-20 μg) are loaded per lane on 4-12% Bis-Tris gels (Invitrogen, Carlsbad, Calif.) and transferred onto PVDF membranes (Millipore, Billerica, Mass.). Membranes are blocked in 10% (w/v) milk in TBST for 1 hour at room temperature, followed by incubation with primary antibody in TBST with 5% BSA at 4° C. for overnight. Secondary antibodies are incubated with membranes at room temperature for 1 hour. Immunoreactivity is detected by ECL and exposed to film or Kodak Image Station 4000R (Eastman Kodak Company, Rochester, N.Y.). Densitometry is analyzed using Kodak Molecular Imaging software, version 4.0.
Cells are washed twice with warm serum-free DMEM and starved in serum-free DMEM for 4 hours with an exchange of fresh medium in the middle. At time zero, 10 μM Emetin, or 100 μg/ml of cycloheximide, or 10 nM IGF1, or 20 μM MG132 are added to cells as specified. At the indicated time intervals, cells are rinsed twice with PBS and harvested in ice-cold RIPA buffer with 10 μM MG132 and protease/phosphatase inhibitors. Cell lysates are rotated at 4° C. for at least one hour, and spun for 10 min at 16,000×g in a micro centrifuge at 4° C. The supernatants are analyzed by western blotting.

Fbxo40 = Fbxo40 protein level after MG132 incubation (co-immunoprecipitation experiment, C2C12 myotubes); assay type: cell-based, mouse; conditions: 20 μM MG132
From the text: Ye et al. 2007 Gene 404: 53-60. We survey the FirstChoice Human Total RNA Panel by quantitative real-time PCR and find that Fbxo40 is highly expressed in heart and muscle (FIG. 3). Furthermore, its mRNA (FIG. 6B) and protein (FIG. 8A) is induced during differentiation of C2C12 cells, which coincides with the accelerated degradation of IRS1 in C2C12 myotubes. IRS1 and Rbx1 can be co-immunoprecipitated with antibody against Fbxo40 (FIG. 6C). […] We also use this immunoprecipitated Fbxo40-Rbx1 complex to ubiquitinate recombinant IRS1 in-vitro and find that IRS1 can be ubiquitinated in a time-dependent manner (FIG. 6D). In this experiment, we include six control reactions. The first four controls are the reactions carried out at 30° C. for 90 min with the omission of E1, or E2 (UbCH5c), or His6-Biotin-N-terminal Ubiquitin, or recombinant IRS1 respectively. The last two controls are full reactions carried out without immunoprecipitated Fbxo40 (with beads incubated with lysate without IgG or with nonspecific rabbit IgG). Poly-ubiquitinated IRS1 can be observed in full reactions after 60 min or 90 min at 30° C.
Alternatively, in the experiment of IRS1 and Rbx1 Co-Immunoprecipitation with Fbxo40, day 3 C2C12 myotubes are starved and treated with 10 nM IGF1 or 20 μM MG132 as described above. […]

IRS1 [2] = test: In-vivo ubiquitination assay and immunoprecipitation of IRS1 in C2C12 myotubes; assay type: cell-based, mouse; conditions: C2C12 myotubes overexpressing his-myc tagged ubiquitin, 10 nM IGF1
Method: Since ubiquitinated proteins are rapidly degraded in cells, in order to detect ubiquitinated IRS1 protein in the experiment shown in FIG. 4C, C2C12 myotubes are infected with an adenovirus overexpressing his-myc tagged ubiquitin and incubated with IGF1 along with MG132 or an isopeptidase inhibitor G5. IRS1 is immunoprecipitated with the rabbit polyclonal anti-IRS1 antibody (lanes 6, 8, 10, 12) or non-specific IgG (lanes 5, 7, 9, 11) as control. Poly-ubiquitination is detected with monoclonal anti-myc antibody against the his-myc tagged ubiquitin and is found to be specifically immunoprecipitated with IRS1 (FIG. 4C, upper panel). […] Note that in the upper panel of FIG. 4C, G5 treatment also causes an upper shift of his-myc tagged ubiquitin in comparison to MG132 treatment alone (compare lane 10 to lane 8). In agreement with the induced degradation of IRS1 upon IGF1 treatment, poly-ubiquitinated IRS1 also increases with IGF1 treatment (FIG. 4D, upper panel) despite that the total amount of ubiquitinated proteins in cells even decreased a little (FIG. 4D, lower panel).
A His-myc-ubiquitin adenoviral expression constructs are sent to Welgen Inc. (Worcester, Mass.) for production and purification. […] Protein concentration in the supernatant is determined by BCA analysis. […] An aliquot (20 μg) of the lysate is analyzed by Western blotting along with 100% of the eluate.

[3] = target: purified recombinant IRS1 protein (Millipore)
purified recombinant IRS1 protein (Millipore), sequence (P35568 whole entry): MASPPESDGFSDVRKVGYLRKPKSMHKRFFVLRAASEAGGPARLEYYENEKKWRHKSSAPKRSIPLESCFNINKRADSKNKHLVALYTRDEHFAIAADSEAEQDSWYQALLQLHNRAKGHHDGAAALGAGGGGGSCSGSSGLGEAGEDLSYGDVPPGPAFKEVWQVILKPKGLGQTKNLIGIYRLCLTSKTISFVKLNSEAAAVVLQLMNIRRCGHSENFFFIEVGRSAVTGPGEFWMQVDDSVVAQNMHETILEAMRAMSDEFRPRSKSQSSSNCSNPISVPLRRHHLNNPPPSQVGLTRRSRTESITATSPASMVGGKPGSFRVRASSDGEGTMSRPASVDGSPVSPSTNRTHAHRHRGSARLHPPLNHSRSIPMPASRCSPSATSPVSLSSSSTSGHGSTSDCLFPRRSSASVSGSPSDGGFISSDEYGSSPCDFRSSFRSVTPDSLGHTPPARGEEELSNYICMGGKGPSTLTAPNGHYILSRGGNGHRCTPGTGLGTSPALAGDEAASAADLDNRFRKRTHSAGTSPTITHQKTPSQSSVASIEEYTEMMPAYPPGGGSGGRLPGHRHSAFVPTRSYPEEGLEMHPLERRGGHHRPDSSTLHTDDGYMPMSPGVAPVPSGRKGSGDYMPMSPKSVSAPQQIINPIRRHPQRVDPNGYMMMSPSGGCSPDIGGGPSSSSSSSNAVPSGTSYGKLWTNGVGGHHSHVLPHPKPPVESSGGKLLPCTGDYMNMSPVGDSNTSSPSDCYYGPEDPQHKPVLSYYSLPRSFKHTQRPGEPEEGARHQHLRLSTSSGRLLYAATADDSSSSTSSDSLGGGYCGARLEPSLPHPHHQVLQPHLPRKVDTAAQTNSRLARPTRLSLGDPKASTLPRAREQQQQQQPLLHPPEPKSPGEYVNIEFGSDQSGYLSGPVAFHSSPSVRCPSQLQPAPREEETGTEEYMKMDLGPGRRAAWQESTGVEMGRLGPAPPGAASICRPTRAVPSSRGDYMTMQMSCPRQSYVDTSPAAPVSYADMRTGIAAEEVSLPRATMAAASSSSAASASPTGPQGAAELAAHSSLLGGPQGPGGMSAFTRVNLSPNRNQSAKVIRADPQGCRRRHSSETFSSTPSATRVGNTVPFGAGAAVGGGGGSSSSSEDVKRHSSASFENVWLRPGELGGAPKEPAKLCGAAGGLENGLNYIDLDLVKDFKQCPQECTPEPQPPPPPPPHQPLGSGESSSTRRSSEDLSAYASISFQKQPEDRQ

In the case of C[C@@H]1C[C@H]2[C@@H]3CCC4=CC(=O)C=C[C@]4(C)[C@@]3(F)[C@@H](O)C[C@]2(C)[C@@]1(O)C(=O)CO [DEX, dexmethasome, reference compound], the “IRS1 degradation upon treatment” value (IRS1 [1]) is reported as “not”.

With CC(C)C[C@@H](C=O)NC(=O)[C@H](CC(C)C)NC(=O)[C@H](CC(C)C)NC(=O)OCc1ccccc1 [MG132, reference compound] (Cbz-Leu-Leu-Leu-aldehyde) the “stabilization of IRS1 protein” value (IRS1 [1]; IGF1 treatment, 20 μM MG132) was “substantially stabilizes” and the “Fbxo40 protein level after incubation with MG132” value (Fbxo40) was “increases”.

insulin-like growth factor-1 (IGF1) was tested, and the “half-life of IRS1 upon IGF1 treatment” value (IRS1 [1]; 10 nM IGF1) was “around 2 hours”, the “protein level of IRS1 in cells treated with IGF1 alone” value (IRS1 [1]; IGF1 alone (no Emetin), slower kinetics) was “decreases” and the “IRS1 degradation upon treatment” value (IRS1 [1]) was “IRS1 is degraded”. For the same molecule, the “poly-ubiquitinated IRS1” value (IRS1 [2]) was “increases”.

B1: Fbxo40, endogenous in C2C12 myotubes (protein)
chain: MGRARKPPPALHRHCEGCFNRHCHVPVEPSVSCLVISCHLLCGATFHMCKESEHTLLCPLEQVPCLNSEYGCPLSMARHKLAKHLQVCPASVVCCSMEWIRWPNVDSETFLHENIMKETPSEECLDTALALQDQKVLFRSLKMVELFPETRDATEEEPDMNGDTSWEETGGAVGGVDARLAPNSCLPATSRQMMELSQEERDALAKTKEGMDLDKFGKWESMFSKEHAASVLTGSLGKSEDKNGDVAGKEQCSSNVRIGDAEGSAERRGPQESQKSQELPATMEMTGLAPWQDGVLERLKTAVDAKDYNMYLVHNGRMLIHFGQMPACTPKERDFVYGNLEAQEVKTVYTFKIPVSYCGKRARLGDAMLKCRPSEHKAVDTSDLGISVEDLPKSDLIKTTLQCALERELKGHVISESRSIDGLFMDLATQTYNFEPEQFSSETVLADLLGTAQPGGLHVELHSECVTRRHNKSSSAFTFTCNKFFRRDEFPLHFKNVHTDIQSSLDGWFQHRCPLAYLGCTFVQNHFRPPGQKAKVIYSQELKTFAIKPEVAPELSEKWKSDHLSGRDGKSLNSLTSLPLEVLQYIAGFLDSISLSQLSQVSVLMRNICATLLQERGMVLSQWKKKRYSHGGTSWKVHNQIWQFSSLFSKINSWEFNDVTSMSEHLKTCPFNIVERKTDPIRLTSMCQPQEKARESLVSTFRARPRGRHF
In the case of B1, the “in-vitro ubiquitination of recombinant IRS1 (streptavidin-HRP blot of His6-Biotin-ubiquitin)” value [3] is reported as “IRS1 can be ubiquitinated in a time-dependent manner”.
